In PMC11965064, “Identification and verification of methylenetetrahydrofolate dehydrogenase 1-like protein as the binding target of natural product pseudolaric acid A” (Natural Products and Bioprospecting, 2025):

Target: T1, methylenetetrahydrofolate dehydrogenase 1-like (MTHFD1L) (Homo sapiens, UniProt Q6UB35)
T1 construct: MTHFD1L (68–978 AA), recombinant from E. coli, MBP tag cleaved with thrombin
T1 sequence (Q6UB35 68-978): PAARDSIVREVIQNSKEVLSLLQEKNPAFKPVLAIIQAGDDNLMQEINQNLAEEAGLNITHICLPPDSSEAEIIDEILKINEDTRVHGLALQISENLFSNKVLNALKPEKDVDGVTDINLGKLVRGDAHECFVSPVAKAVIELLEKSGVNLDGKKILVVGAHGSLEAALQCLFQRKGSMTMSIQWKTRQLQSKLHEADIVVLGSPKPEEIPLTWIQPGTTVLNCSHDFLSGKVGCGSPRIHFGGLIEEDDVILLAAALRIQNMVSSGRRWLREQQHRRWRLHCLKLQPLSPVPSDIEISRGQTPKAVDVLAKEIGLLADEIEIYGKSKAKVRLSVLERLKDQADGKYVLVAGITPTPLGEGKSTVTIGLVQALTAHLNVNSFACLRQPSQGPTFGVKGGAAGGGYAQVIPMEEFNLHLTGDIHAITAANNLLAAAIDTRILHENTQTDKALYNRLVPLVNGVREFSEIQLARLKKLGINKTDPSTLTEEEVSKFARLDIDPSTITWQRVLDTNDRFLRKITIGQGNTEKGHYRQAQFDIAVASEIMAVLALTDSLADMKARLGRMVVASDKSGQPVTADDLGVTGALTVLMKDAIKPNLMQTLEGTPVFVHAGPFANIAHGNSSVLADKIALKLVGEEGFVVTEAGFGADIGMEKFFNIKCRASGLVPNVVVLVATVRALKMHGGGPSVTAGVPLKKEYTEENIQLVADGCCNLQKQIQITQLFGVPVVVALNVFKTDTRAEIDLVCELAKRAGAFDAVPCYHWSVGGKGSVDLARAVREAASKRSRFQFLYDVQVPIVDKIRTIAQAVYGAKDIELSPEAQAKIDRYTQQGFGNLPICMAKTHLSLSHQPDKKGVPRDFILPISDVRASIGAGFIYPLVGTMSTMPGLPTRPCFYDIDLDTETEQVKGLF
Experiment: SPR (Biacore T200, steady-state affinity); supported by NMR STD, DARTS and ABPP competition
Assay type: binding

- Kd: ~4.05 µM
SMILES: CC(=O)O[C@]12CCC(C)=CC[C@]13CC[C@H]2[C@@](C)(/C=C/C=C(\C)C(=O)O)OC3=O [PAA, pseudolaric acid A]
